Data: paper PMC11267380, “USP25 Elevates SHLD2‐Mediated DNA Double‐Strand Break Repair and Regulates Chemoresponse in Cancer” (Advanced Science, 2024)

Test system: USP25 phosphorylation at SQ/TQ motif in HEK293T cells
Test: USP25 phosphorylation (p-SQ/TQ) after IR, IP and immunoblot
Format: cell-based
Conditions: IR (10 Gy), Ku55933 (25 µM) for 2 h pretreatment or phosphatase treatment of immunoprecipitated USP25
Experimental: Figure 4 Regulation of the DDR signaling by USP25. a) HEK293T cells were left untreated or treated with IR (10 Gy) or 5‐Fu (20 uM). USP25 was immunoprecipitated and immunoblotted with phospho‐SQ/TQ (p‐SQ/TQ). b) HEK293T cells were pretreated with Ku55933 (25 µM) for 2 h followed by treatment with IR(10 Gy). After 1 h, USP25 was immunoprecipitated, left untreated, or treated with phosphatase and immunoblotted with p‐SQ/TQ. c) HEK293T cells transfected with USP25^WT and indicated constructs were left treated with IR(10 Gy). USP25 was immunoprecipitated and immunoblotted with p‐SQ/TQ. d) USP25 knockdowm U2OS cells rescued with USP25WT or USP25T523A were treated with IR (2 Gy), and co‐localization USP25 with γH2AX was detected by immunofluorescence. n>80 in each group. e) HEK293T cells were left untreated or treated with 5‐Fu (20 uM). […] The interaction USP25 and MDC1 deletions was detected. g) HEK293T cells transfected with USP25^WT or USP25^T523A were treated with IR, and cell lysates were incubated with GST or GST‐MDC1‐BRCT in vitro. The interaction USP25 and MDC1‐BRCT was detected. h) Non‐phosphorylated or phosphorylated Thr523 peptide was conjugated to beads and incubated with purified GST‐MDC1‐BRCT domain in buffer. […]

O=c1cc(-c2cccc3c2Sc2ccccc2S3)oc(N2CCOCC2)c1 [Ku55933]
USP25 phosphorylation: abolished
